Measured values from PMC7794397, “Curbing gastrointestinal infections by defensin fragment modifications without harming commensal microbiota” (Communications Biology, 2021).
Where two headings read alike, the source gives them in different places. Residues, ends and D or L forms follow the SMILES beside them. *: point of attachment. Palmitoyl = CCCCCCCCCCCCCCCC(=O)*; AEEA = NCCOCCOCC(=O)O

How the values were obtained:
[1] = system: B. subtilis ypuA promoter; assay: ypuA promoter luciferase reporter strain (cell envelope stress); type: cell-based
Experimental: A specific bacterial reporter strain with the genetic background of Bacillus subitilis 1S34, carrying the promoter of the ypuA gene, fused to the firefly luciferase reporter gene, was used to identify cell envelope-related damage caused by treatment with antimicrobial compounds[31]. The assay was carried out in agreement with former reports describing this method[20],[59]. Bacteria were cultured to an OD600 of 0.9 in LB broth with 5 µg/ml erythromycin at 37 °C and diluted to an OD600 of 0.02. Serial peptide dilutions (0.15–150 µM) were prepared in a microtiter plate and incubated with the adjusted bacterial suspension at 37 °C for 1 h. Subsequently, citrate buffer (0.1 M, pH 5) containing 2 mM luciferin (Iris Biotech, Germany) was added and luminescence was measured using a microplate reader (Tecan, Switzerland).

[2] = system: S. Typhimurium DSM554; conditions: for Fold change in MIC: relative to MIC of first passage, Mean
Experimental: Development of resistance to the peptides was assessed with S. aureus and S. Typhimurium. […] Bacteria were cultured overnight at 37 °C at 150 rpm in TSB. Bacteria were washed twice with 10 mM sodium phosphate buffer containing 1% (w/v) TSB. […] After incubation, 100 µl of 6% TSB (w/v) was added and plates incubated in a humidified atmosphere for 21 h at 37 °C and 150 rpm.
The MIC, the lowest concentration of peptide/antibiotic that caused a lack of visible bacterial growth, was determined for each bacterial species. […] This was repeated for 25 passages.

[3] = system: multidrug resistant bacteria belonging to the ESKAPE pathogen panel; type: cell-based
Experimental: Bactericidal activity was assessed by broth microdilution assay. […] After incubation, 100 µl of 6% TSB (w/v) were added and absorbance was measured at 600 nm (Tecan, Switzerland) and monitored for 18 h. Afterward, 100 µl per well were plated on LB agar to determine the numbers of viable bacteria microbiologically. Bactericidal activity is expressed as the LC99.9, the lowest concentration that killed ≥99.9 % of bacteria.

[4] = system: E. faecium DSM2918 VRE; conditions: DSM2918, 2 h
Experimental: (§1) Bactericidal activity was assessed by broth microdilution assay. Log-phase bacteria were collected by centrifugation (2500 rpm, 10 min, 4 °C), washed twice with 10 mM sodium phosphate buffer containing 1% (w/v) TSB and the optical density at 600 nm was adjusted to 0.1. Approximately 5 × 10^5 CFU/ml bacteria were incubated with serial peptide concentrations (1.17–150 µM) in a final volume of 100 µl in 10 mM sodium phosphate buffer containing 1% (w/v) TSB for 2 h at 37 °C. After incubation, 100 µl of 6% TSB (w/v) were added and absorbance was measured at 600 nm (Tecan, Switzerland) and monitored for 18 h. Afterward, 100 µl per well were plated on LB agar to determine the numbers of viable bacteria microbiologically. Bactericidal activity is expressed as the LC99.9, the lowest concentration that killed ≥99.9 % of bacteria.

[5] = system: P. aeruginosa DSM1117 4-MRGN; conditions: DSM1117, 2 h
Experimental: as §1

[6] = system: S. aureus DSM20213 MRSA; conditions: DSM20213, 2 h
Experimental: as §1

[7] = system: A. baumannii DSM30007 4-MRGN
Experimental: as §1

[8] = system: E. coli 6940 3-MRGN; conditions: 2 h
Experimental: as §1

[9] = system: S. aureus NCTC8325; assay: Transmission and scanning electron microscopy; type: cell-based; conditions: 37.5 µM Pam-3 (4x MIC), 30 min
Description: As a control, bacteria were exposed to 0.01% acetic acid. Afterward bacteria were fixed in Karnovsky’s reagent.
For transmission electron microscopy (TEM), bacteria were high-pressure frozen (HPF Compact 03, Engineering Office M. Wohlwend GmbH) in capillaries, freeze-substituted (AFS2, Leica Microsystems) with 2% OsO4 and 0.4% uranyl acetate in acetone as substitution medium and embedded in EPON. Ultrathin sections were stained with uranyl acetate and lead citrate and analyzed with a Tecnai Spirit (Thermo Fisher Scientific) operated at 120 kV.
For scanning electron microscopy (SEM), bacteria were washed in PBS and finally fixed with 1% OsO4 on ice for 1 h. Next, samples were prepared on polylysin-coated coverslips, dehydrated in a graduated series to 100% ethanol and critical point dried (Polaron) with CO2. Finally, samples were sputter-coated with a 3 nm thick layer of platinum (Safematic CCu-010) and examined with a Hitachi Regulus 8230 field emission scanning electron microscope (Hitachi) at an accelerating voltage of 5 kV.

[10] = system: S. aureus ATCC25923; assay: Treatment of established biofilms; type: cell-based; conditions: for viable bacteria in biofilm: 24 h old biofilm, 1 h treatment
Experimental: Then, planktonic bacteria were removed by two wash steps with PBS. […] Afterward, adherent bacteria in each well were resuspended, and the number of viable bacteria was determined microbiologically. […] The biofilm degradation assay was performed in agreement with the original report describing this method first.

CCCCCCCCCCCCCCCC(=O)NCCOCCOCC(=O)N[C@@H](CCCNC(=N)N)C(=O)NCC(=O)N[C@@H](CCCCN)C(=O)N[C@@H](C)C(=O)N[C@@H](CCCCN)C(=O)N[C@@H](CS)C(=O)N[C@@H](CS)C(=O)N[C@@H](CCCCN)C(=O)O [Pam-3] ({Palmitoyl-AEEA}-RGKAKCCK-OH; C-terminus assumed)
activation of the ypuA promoter [1]: 2 fold
ypuA promoter activation (relative to untreated = 1) ([1]; 0.031x MIC Pam-3, 1 h, experiment 1): 1.05
ypuA promoter activation (relative to untreated = 1) ([1]; 0.031x MIC Pam-3, 1 h, experiment 2): 1.15
ypuA promoter activation (relative to untreated = 1) ([1]; 0.031x MIC Pam-3, 1 h, experiment 3): 1.17
ypuA promoter activation (relative to untreated = 1) ([1]; 0.062x MIC Pam-3, 1 h, experiment 1): 1.16
ypuA promoter activation (relative to untreated = 1) ([1]; 0.062x MIC Pam-3, 1 h, experiment 2): 1.27
ypuA promoter activation (relative to untreated = 1) ([1]; 0.062x MIC Pam-3, 1 h, experiment 3): 1.36
ypuA promoter activation (relative to untreated = 1) ([1]; 0.125x MIC Pam-3, 1 h, experiment 1): 1.38
ypuA promoter activation (relative to untreated = 1) ([1]; 0.125x MIC Pam-3, 1 h, experiment 2): 1.48
ypuA promoter activation (relative to untreated = 1) ([1]; 0.125x MIC Pam-3, 1 h, experiment 3): 1.76
ypuA promoter activation (relative to untreated = 1) ([1]; 0.25x MIC Pam-3, 1 h, experiment 1): 2.12
ypuA promoter activation (relative to untreated = 1) ([1]; 0.25x MIC Pam-3, 1 h, experiment 2): 2
ypuA promoter activation (relative to untreated = 1) ([1]; 0.25x MIC Pam-3, 1 h, experiment 3): 2.57
ypuA promoter activation (relative to untreated = 1) ([1]; 0.5x MIC Pam-3, 1 h, experiment 1): 0.23
ypuA promoter activation (relative to untreated = 1) ([1]; 0.5x MIC Pam-3, 1 h, experiment 2): 0.18
ypuA promoter activation (relative to untreated = 1) ([1]; 0.5x MIC Pam-3, 1 h, experiment 3): 0.26
ypuA promoter activation (relative to untreated = 1) ([1]; 1x MIC Pam-3, 1 h, experiment 1): 0
ypuA promoter activation (relative to untreated = 1) ([1]; 1x MIC Pam-3, 1 h, experiment 2): 0
ypuA promoter activation (relative to untreated = 1) ([1]; 1x MIC Pam-3, 1 h, experiment 3): 0.02
ypuA promoter activation (relative to untreated = 1) ([1]; 2x MIC Pam-3, 1 h, experiment 1): 0
ypuA promoter activation (relative to untreated = 1) ([1]; 2x MIC Pam-3, 1 h, experiment 2): 0
ypuA promoter activation (relative to untreated = 1) ([1]; 2x MIC Pam-3, 1 h, experiment 3): 0
Fold change in MIC ([2]; Day (passage) 0): 1.0
Fold change in MIC ([2]; Day (passage) 1): 0.7
Fold change in MIC ([2]; Day (passage) 2): 0.5
Fold change in MIC ([2]; Day (passage) 3): 0.7
Fold change in MIC ([2]; Day (passage) 4): 0.7
Fold change in MIC ([2]; Day (passage) 5): 0.7
Fold change in MIC ([2]; Day (passage) 6): 0.7
Fold change in MIC ([2]; Day (passage) 7): 0.8
Fold change in MIC ([2]; Day (passage) 8): 0.7
Fold change in MIC ([2]; Day (passage) 9): 0.7
Fold change in MIC ([2]; Day (passage) 10): 1.3
Fold change in MIC ([2]; Day (passage) 11): 1.2
Fold change in MIC ([2]; Day (passage) 12): 0.7
Fold change in MIC ([2]; Day (passage) 13): 0.8
Fold change in MIC ([2]; Day (passage) 14): 0.7
Fold change in MIC ([2]; Day (passage) 15): 0.375
Fold change in MIC ([2]; Day (passage) 16): 0.7
Fold change in MIC ([2]; Day (passage) 17): 1.0
Fold change in MIC ([2]; Day (passage) 18): 0.8
Fold change in MIC ([2]; Day (passage) 19): 0.7
Fold change in MIC ([2]; Day (passage) 20): 0.5
Fold change in MIC ([2]; Day (passage) 21): 0.7
Fold change in MIC ([2]; Day (passage) 22): 1.0
Fold change in MIC ([2]; Day (passage) 23): 0.5
Fold change in MIC ([2]; Day (passage) 24): 0.5
Fold change in MIC ([2]; Day (passage) 25): 0.5
emergence of resistant isolates (in words) ([2]; continuous serial passages): no resistant S. Typhimurium isolates emerged
effective concentrations (LC99.9) across the panel ([3]; 18 different bacteria, three experiments each): 4.69 to 18.75 µM
overall measured mean effective concentration ([3]; 18 different bacteria, three experiments each, peer review file): 9.38 µM
bactericidal activity (in words) ([3]; broth microdilution, ESKAPE panel): highly effective
LC99.9 [4]: 9.38 (4.87-9.38) μM
LC99.9 [5]: 9.38 µM
LC99.9 [6]: 9.38 (4.87-9.38) μM
growth inhibition of colistin- and tigecycline-resistant isolate (in words) [7]: inhibited the growth
LC99.9 [8]: 9.38 µM
bacterial morphology, TEM (in words) [9]: strong cell envelope damage with disrupted membranes and pores in most of the cells
eradication of bacteria in biofilms ([10]; 300 µM, within 1 h, Kruskal–Wallis p = 0.0026): ~ 99.99%
viable bacteria in biofilm ([10]; 9.375 µM Pam-3, experiment 1): 43066667 CFU/ml
viable bacteria in biofilm ([10]; 9.375 µM Pam-3, experiment 2): 6050000 CFU/ml
viable bacteria in biofilm ([10]; 9.375 µM Pam-3, experiment 3): 15666667 CFU/ml
viable bacteria in biofilm ([10]; 18.75 µM Pam-3, experiment 1): 32200000 CFU/ml
viable bacteria in biofilm ([10]; 18.75 µM Pam-3, experiment 2): 3550000 CFU/ml
viable bacteria in biofilm ([10]; 18.75 µM Pam-3, experiment 3): 17250000 CFU/ml
viable bacteria in biofilm ([10]; 37.5 µM Pam-3, experiment 1): 27300000 CFU/ml
viable bacteria in biofilm ([10]; 37.5 µM Pam-3, experiment 2): 2333333 CFU/ml
viable bacteria in biofilm ([10]; 37.5 µM Pam-3, experiment 3): 5966667 CFU/ml
viable bacteria in biofilm ([10]; 75 µM Pam-3, experiment 1): 1496667 CFU/ml
viable bacteria in biofilm ([10]; 75 µM Pam-3, experiment 2): 239889 CFU/ml
viable bacteria in biofilm ([10]; 75 µM Pam-3, experiment 3): 3451667 CFU/ml
viable bacteria in biofilm ([10]; 150 µM Pam-3, experiment 1): 150333 CFU/ml
viable bacteria in biofilm ([10]; 150 µM Pam-3, experiment 2): 9167 CFU/ml
viable bacteria in biofilm ([10]; 150 µM Pam-3, experiment 3): 24500 CFU/ml
viable bacteria in biofilm ([10]; 300 µM Pam-3, experiment 1): 67 CFU/ml
viable bacteria in biofilm ([10]; 300 µM Pam-3, experiment 2): 333 CFU/ml
viable bacteria in biofilm ([10]; 300 µM Pam-3, experiment 3): 1300 CFU/ml
